Results taken from ChEMBL document CHEMBL5380808, “Design, Synthesis, and Biological Activity of Marinacarboline Analogues as STAT3 Pathway Inhibitors for Docetaxel-Resistant Triple-Negative Breast Cancer” (J Med Chem, 2023).
Active and inactive are the calls of the source. The rule behind the calls is not given here.

What was measured:
MDA-MB-231 [1] = test: Antitumor activity against docetaxel-resistant human MDA-MB-231-DTR cells xenografted in BALB/c mouse assessed as upregulation of E-cadherin level in tumor tissue at 10 mg/kg, ip daily for 12 days by Immunohistochemical analysis; type: functional, organism-based; settings: time 12.0 day
[2] = Synergistic antiproliferative activity against docetaxel-resistant human MDA-MB-231-DTR cells assessed as combination index at 4 uM incubated for 72 hrs in presence of 1 uM of docetaxel by Chou-Talalay method; type: functional
[3] = Induction of cell cycle arrest in docetaxel-resistant human MDA-MB-231-DTR cells assessed as accumulation at S phase at 5 uM incubated for 48 hrs by PI staining based flow cytometry analysis (reference value: 10.56%); type: functional
[4] = Synergistic antiproliferative activity against docetaxel-resistant human MDA-MB-231-DTR cells assessed as combination index at 2 uM incubated for 72 hrs in presence of 2 uM of docetaxel by Chou-Talalay method; type: functional
[5] = Induction of cell cycle arrest in docetaxel-resistant human MDA-MB-231-DTR cells assessed as accumulation at subG1 phase at 2.5 uM incubated for 36 hrs by PI staining based flow cytometry analysis (reference value: 0.52%); type: functional
[6] = Cytotoxicity against human MRC5 cells assessed as reduction in cell viability incubated for 72 hrs by sulforhodamine B assay; type: toxicity, cell-based
MDA-MB-231 [7] = test: Antitumor activity against docetaxel-resistant human MDA-MB-231-DTR cells xenografted in BALB/c mouse assessed as downregulation of Ki67 level in tumor tissue at 10 mg/kg, ip daily for 12 days by Immunohistochemical analysis; type: functional, organism-based; settings: time 12.0 day
MDA-MB-231 [8] = test: Antitumor activity against docetaxel-resistant human MDA-MB-231-DTR cells xenografted in BALB/c mouse assessed as reduction in tumor volume at 10 mg/kg, ip daily for 12 days in presence of docetaxel; type: functional, organism-based; settings: time 12.0 day
[9] = Induction of cell cycle arrest in docetaxel-resistant human MDA-MB-231-DTR cells assessed as accumulation at G2/M phase at 5 uM incubated for 48 hrs by PI staining based flow cytometry analysis (reference value: 13.54%); type: functional
[10] = Induction of apoptosis in docetaxel-resistant human MDA-MB-231-DTR cells assessed as increase in total cell death at 2.5 uM incubated for 48 hrs by Annexin V-FITC and PI staining based flow cytometry; type: functional
[11] = Induction of cell cycle arrest in docetaxel-resistant human MDA-MB-231-DTR cells assessed as accumulation at G2/M phase at 2.5 uM incubated for 36 hrs by PI staining based flow cytometry analysis (reference value: 13.16%); type: functional
MDA-MB-231 [12] = test: Induction of apoptosis in docetaxel-resistant human MDA-MB-231-DTR cells assessed as upregulation of cleaved-caspase-3 expression level at 2.5 to 10 uM incubated for 48 hrs by Western blot analysis; type: functional, cell-based; settings: dose 2.5-10 µM
MDA-MB-231 [13] = test: Induction of apoptosis in docetaxel-resistant human MDA-MB-231-DTR cells assessed as downregulation of survivin expression level at 2.5 to 10 uM incubated for 48 hrs by Western blot analysis; type: functional, cell-based; settings: dose 2.5-10 µM
[14] = Synergistic antiproliferative activity against docetaxel-resistant human MDA-MB-231-DTR cells assessed as combination index at 4 uM incubated for 72 hrs in presence of 2 uM of docetaxel by Chou-Talalay method; type: functional
[15] = target: T1, Signal transducer and activator of transcription 5A (Homo sapiens) (UniProt P42229); test: Inhibition of STAT5 phosphorylation at Y694 residue in docetaxel-resistant human MDA-MB-231-DTR cells assessed as decrease in phosphorylated STAT5 level at 2.5 to 10 uM incubated for 24 hrs by Western blot analysis; type: cell-based; settings: dose 2.5-10 µM
T1 sequence (whole entry): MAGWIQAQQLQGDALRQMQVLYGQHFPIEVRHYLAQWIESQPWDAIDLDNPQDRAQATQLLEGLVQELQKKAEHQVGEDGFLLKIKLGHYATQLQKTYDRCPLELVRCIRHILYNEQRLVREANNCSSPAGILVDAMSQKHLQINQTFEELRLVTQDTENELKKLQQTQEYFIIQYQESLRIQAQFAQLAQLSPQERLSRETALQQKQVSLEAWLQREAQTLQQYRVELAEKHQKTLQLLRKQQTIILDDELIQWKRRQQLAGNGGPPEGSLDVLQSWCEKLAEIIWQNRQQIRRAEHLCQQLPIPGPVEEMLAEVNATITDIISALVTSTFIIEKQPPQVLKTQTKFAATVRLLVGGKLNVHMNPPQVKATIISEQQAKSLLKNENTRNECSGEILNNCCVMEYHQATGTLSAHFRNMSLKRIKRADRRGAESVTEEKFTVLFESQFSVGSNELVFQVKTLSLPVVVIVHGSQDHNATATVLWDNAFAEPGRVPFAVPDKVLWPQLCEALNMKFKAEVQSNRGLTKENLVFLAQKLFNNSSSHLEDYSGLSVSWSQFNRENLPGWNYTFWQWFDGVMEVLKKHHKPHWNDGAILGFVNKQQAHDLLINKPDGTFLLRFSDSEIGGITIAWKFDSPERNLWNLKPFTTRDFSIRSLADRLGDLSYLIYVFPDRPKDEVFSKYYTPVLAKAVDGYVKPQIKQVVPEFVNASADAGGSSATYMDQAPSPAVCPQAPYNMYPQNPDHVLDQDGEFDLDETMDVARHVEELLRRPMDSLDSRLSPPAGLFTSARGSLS

MDA-MB-231 [16] = test: Inhibition of cell migration in docetaxel-resistant human MDA-MB-231-DTR cells assessed as downregulation of N-cadherin expression level at 3 to 6 uM incubated for 24 hrs by Western blot analysis; type: functional, cell-based; settings: dose 3-6 µM
[17] = Induction of cell cycle arrest in docetaxel-resistant human MDA-MB-231-DTR cells assessed as accumulation at G0/G1 phase at 5 uM incubated for 48 hrs by PI staining based flow cytometry analysis (reference value: 75.49%); type: functional
MDA-MB-231 [18] = test: Induction of apoptosis in docetaxel-resistant human MDA-MB-231-DTR cells assessed as upregulation of cleaved-PARP expression level at 2.5 to 10 uM incubated for 48 hrs by Western blot analysis; type: functional, cell-based; settings: dose 2.5-10 µM
[19] = target: Signal transducer and activator of transcription 3 (Homo sapiens) (UniProt P40763); test: Inhibition of STAT3 phosphorylation at Y705 residue in human MDA-MB-231 cells assessed as decrease in phosphorylated STAT3 level at 5 uM incubated for 24 hrs by Western blot analysis; type: cell-based
[20] = Induction of cell cycle arrest in docetaxel-resistant human MDA-MB-231-DTR cells assessed as accumulation at G0/G1 phase at 10 uM incubated for 36 hrs by PI staining based flow cytometry analysis (reference value: 74.77%); type: functional
[21] = Induction of apoptosis in docetaxel-resistant human MDA-MB-231-DTR cells assessed as increase in total cell death at 5 uM incubated for 48 hrs by Annexin V-FITC and PI staining based flow cytometry; type: functional
MDA-MB-231 [22] = test: Induction of cell cycle arrest at G2/M phase in docetaxel-resistant human MDA-MB-231-DTR cells assessed as upregulation of Chk2 phosphorylation at T68 at 2.5 to 10 uM incubated for 36 hrs by Western blot analysis; type: functional, cell-based; settings: dose 2.5-10 µM

Sequence of Signal transducer and activator of transcription 3 (Homo sapiens) (P40763 whole entry): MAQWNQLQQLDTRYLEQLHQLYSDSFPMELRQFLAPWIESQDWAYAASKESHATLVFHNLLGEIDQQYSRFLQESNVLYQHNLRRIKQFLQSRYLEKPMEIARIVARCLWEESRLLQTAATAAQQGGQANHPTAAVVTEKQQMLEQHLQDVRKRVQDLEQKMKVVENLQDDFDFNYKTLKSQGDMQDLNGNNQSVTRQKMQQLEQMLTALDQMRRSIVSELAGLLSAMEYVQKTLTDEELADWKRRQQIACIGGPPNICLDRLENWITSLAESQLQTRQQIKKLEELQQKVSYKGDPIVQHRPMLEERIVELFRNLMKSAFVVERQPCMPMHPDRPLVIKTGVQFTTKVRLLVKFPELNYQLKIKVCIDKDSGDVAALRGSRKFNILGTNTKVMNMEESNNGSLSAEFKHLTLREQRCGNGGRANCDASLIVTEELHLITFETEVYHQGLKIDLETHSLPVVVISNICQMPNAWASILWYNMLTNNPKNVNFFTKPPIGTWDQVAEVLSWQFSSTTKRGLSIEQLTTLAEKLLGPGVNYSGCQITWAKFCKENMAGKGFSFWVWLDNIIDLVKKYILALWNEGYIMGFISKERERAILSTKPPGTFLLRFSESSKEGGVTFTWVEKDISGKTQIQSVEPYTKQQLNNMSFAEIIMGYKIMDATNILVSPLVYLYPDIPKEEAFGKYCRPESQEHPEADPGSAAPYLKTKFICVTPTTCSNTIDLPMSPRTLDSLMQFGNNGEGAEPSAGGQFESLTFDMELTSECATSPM

In the case of O=C(NCCc1c[nH]c2ccccc12)c1cc2c([nH]c3ccccc32)c(C(=O)c2ccc(Br)cc2)n1, the Activity (MDA-MB-231 [1]) is reported as “Active”, the CI [2] is reported as 0.38 and the Activity [3] is reported as 12.49%. For the same compound, the CI [4] was 0.23, the Activity [5] was 0.57% and the IC50 at 72 h [6] was 33.2 µM. The Activity (MDA-MB-231 [7]) was “Active”, the Activity (MDA-MB-231 [8]) was “Active” and the Activity [9] was 12.87%. The Activity [10] was 5.55%, the Activity [11] was 25.18% and the Activity (MDA-MB-231 [12]) was “Active”. The Activity (MDA-MB-231 [13]) was “Active”, the CI [14] was 0.53 and the inhibition [15] was “inactive”. The inhibition (MDA-MB-231 [16]) was “Active”, the Activity [17] was 48.08% and the Activity (MDA-MB-231 [18]) was “Active”. For the same compound, the inhibition [19] was “Active”, the Activity [20] was 51.09% and the Activity [21] was 18.79%. For the same compound, the Activity (MDA-MB-231 [22]) was “Active”.
